Drawing on patent US20170190705A1, “Compositions and Methods for Inhibiting BMP” (THE BRIGHAM AND WOMAN'S HOSPITAL, INC., priority 2014, published 2017), this text covers inhibition for 2 molecules.

Common to all, as to type: biochemical
The target of one test is T1, FLT-3 (Homo sapiens, UniProt P36888).
T1 sequence (P36888 27-993): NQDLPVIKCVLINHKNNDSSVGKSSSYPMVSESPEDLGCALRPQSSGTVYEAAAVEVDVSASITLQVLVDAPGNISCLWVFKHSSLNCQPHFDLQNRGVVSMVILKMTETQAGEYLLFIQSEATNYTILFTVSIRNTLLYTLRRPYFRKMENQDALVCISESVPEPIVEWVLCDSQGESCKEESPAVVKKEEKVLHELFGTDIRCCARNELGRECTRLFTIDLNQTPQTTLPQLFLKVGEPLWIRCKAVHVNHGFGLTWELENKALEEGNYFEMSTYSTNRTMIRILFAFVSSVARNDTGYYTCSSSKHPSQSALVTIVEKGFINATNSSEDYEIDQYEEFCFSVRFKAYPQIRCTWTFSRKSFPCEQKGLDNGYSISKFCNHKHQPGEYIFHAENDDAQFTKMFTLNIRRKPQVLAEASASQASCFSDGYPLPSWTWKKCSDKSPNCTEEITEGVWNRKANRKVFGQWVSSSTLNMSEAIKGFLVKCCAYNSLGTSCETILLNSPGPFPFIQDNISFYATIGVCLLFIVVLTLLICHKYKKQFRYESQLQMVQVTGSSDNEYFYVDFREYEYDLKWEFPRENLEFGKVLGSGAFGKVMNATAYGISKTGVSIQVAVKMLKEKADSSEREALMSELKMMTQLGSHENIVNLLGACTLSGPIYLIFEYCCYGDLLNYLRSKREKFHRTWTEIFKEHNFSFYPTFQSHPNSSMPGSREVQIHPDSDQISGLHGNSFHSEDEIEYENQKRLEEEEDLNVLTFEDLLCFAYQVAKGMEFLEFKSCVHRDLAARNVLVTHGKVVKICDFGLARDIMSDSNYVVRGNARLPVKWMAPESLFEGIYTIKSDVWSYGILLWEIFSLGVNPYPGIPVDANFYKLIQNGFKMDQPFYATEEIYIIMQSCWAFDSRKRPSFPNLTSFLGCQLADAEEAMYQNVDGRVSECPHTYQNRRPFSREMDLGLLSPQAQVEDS
As to the kind of experiment: Kinome profiling FLT-3. The conditions noted are these: read-out: Inhibitory activity FLT-3; for inhibition at 0.1 µM: 100 nM. The protocol:
(§1) . The kinome-wide selectivity was determined following the methods previously reported by Mohedas et al., ACS Chem Biol 2013, 8, 1291-1302 and Sanvitale et al., PLoS One 2013, 8, e62721.

In the next test the target is RET (Homo sapiens, UniProt P07949). As to the kind of experiment: Kinome profiling RET. As to conditions: read-out: Inhibitory activity RET; for inhibition at 0.1 µM: 100 nM. The protocol: as §1
A further test addresses T2, IKK-ε (Homo sapiens, UniProt Q14164).
T2 sequence (Q14164 1-716): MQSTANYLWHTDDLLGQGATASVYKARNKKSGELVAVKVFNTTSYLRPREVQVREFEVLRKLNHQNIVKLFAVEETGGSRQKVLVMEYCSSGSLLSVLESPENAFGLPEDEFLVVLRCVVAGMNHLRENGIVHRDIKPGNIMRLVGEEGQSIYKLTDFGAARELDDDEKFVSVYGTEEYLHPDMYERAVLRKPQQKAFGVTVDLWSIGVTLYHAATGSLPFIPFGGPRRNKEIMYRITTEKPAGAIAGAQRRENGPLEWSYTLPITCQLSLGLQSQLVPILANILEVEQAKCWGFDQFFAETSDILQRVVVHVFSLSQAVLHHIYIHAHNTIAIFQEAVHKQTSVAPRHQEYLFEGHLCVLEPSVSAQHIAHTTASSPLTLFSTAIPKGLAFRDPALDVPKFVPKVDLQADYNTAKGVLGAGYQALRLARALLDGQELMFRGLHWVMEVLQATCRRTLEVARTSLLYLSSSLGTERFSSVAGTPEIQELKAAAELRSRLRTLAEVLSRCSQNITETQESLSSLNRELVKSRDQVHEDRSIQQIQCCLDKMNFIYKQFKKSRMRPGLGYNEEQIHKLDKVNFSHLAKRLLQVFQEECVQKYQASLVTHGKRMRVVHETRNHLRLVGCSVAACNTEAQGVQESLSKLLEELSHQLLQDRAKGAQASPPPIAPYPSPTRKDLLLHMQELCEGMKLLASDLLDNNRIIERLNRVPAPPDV
In words: Kinome profiling IKK-ε. The conditions noted are these: read-out: Inhibitory activity IKK-ε; for inhibition at 0.1 µM: 100 nM. The method, then:
as §1

Another test concerns the target T3, NEK9 (Homo sapiens, UniProt Q8TD19).
T3 sequence (Q8TD19 1-979): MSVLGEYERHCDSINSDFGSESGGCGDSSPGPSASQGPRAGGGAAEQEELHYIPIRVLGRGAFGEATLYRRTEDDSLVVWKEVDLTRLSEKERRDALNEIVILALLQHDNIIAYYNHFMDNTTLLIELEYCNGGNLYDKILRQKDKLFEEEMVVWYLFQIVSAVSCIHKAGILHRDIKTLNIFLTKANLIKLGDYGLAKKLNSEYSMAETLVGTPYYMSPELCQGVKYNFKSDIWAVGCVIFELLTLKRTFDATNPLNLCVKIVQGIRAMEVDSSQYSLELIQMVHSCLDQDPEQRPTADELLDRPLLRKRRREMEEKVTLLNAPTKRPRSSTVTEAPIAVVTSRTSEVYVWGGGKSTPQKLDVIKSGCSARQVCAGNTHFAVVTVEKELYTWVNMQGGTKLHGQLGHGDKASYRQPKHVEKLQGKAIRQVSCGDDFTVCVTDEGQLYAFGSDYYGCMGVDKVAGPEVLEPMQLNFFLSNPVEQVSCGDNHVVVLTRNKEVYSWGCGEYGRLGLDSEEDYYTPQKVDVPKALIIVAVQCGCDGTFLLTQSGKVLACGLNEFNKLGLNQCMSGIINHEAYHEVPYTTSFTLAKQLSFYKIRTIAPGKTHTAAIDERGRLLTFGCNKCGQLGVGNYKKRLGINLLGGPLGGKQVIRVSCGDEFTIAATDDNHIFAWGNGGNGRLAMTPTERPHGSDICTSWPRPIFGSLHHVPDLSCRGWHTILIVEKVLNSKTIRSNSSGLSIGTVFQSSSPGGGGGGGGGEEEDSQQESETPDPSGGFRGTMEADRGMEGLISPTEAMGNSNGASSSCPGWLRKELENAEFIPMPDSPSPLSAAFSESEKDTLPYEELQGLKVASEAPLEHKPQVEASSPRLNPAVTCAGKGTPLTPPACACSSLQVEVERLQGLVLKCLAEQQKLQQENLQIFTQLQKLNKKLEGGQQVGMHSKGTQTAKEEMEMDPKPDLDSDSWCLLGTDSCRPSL
As to the kind of experiment: Kinome profiling NEK9. As to conditions: read-out: Inhibitory activity NEK9; for inhibition at 0.1 µM: 100 nM. The protocol: as §1

The target in the next test is JAK1 (Homo sapiens, UniProt P23458). In words: Kinome profiling JAK1. The conditions noted are these: read-out: Inhibitory activity JAK1; for inhibition at 0.1 µM: 100 nM. The protocol:
as §1

The structures appear in SMILES notation.

Chain of JAK1 (P23458 whole entry): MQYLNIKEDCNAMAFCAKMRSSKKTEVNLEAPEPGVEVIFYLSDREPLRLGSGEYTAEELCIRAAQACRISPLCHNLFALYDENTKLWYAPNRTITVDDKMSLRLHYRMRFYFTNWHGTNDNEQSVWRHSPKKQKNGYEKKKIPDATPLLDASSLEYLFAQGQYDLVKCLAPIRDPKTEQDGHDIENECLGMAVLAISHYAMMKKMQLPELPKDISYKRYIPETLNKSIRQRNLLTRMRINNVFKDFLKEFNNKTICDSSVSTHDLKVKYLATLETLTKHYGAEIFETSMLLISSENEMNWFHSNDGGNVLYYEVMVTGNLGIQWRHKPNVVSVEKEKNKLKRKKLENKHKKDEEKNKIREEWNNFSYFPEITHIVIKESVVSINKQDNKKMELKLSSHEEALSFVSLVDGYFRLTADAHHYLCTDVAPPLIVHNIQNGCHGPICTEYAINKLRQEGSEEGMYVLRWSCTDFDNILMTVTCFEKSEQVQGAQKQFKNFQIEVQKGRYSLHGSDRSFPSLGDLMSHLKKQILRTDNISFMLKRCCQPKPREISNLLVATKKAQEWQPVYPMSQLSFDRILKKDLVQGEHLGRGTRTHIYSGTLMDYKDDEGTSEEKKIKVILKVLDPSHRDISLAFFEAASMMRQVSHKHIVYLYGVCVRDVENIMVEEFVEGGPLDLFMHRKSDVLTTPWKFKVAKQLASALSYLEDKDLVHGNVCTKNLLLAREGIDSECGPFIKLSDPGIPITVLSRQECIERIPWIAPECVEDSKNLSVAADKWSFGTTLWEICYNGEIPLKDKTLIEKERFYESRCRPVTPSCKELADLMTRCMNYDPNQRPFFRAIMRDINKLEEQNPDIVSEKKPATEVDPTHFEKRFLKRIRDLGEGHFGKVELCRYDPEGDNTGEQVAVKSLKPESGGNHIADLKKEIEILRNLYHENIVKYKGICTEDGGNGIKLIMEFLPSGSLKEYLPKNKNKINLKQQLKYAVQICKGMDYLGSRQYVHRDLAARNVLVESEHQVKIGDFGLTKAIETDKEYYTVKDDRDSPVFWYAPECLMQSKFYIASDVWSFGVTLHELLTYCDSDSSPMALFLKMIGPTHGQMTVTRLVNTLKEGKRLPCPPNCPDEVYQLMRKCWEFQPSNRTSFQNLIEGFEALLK
Chain of RET (P07949 29-1114): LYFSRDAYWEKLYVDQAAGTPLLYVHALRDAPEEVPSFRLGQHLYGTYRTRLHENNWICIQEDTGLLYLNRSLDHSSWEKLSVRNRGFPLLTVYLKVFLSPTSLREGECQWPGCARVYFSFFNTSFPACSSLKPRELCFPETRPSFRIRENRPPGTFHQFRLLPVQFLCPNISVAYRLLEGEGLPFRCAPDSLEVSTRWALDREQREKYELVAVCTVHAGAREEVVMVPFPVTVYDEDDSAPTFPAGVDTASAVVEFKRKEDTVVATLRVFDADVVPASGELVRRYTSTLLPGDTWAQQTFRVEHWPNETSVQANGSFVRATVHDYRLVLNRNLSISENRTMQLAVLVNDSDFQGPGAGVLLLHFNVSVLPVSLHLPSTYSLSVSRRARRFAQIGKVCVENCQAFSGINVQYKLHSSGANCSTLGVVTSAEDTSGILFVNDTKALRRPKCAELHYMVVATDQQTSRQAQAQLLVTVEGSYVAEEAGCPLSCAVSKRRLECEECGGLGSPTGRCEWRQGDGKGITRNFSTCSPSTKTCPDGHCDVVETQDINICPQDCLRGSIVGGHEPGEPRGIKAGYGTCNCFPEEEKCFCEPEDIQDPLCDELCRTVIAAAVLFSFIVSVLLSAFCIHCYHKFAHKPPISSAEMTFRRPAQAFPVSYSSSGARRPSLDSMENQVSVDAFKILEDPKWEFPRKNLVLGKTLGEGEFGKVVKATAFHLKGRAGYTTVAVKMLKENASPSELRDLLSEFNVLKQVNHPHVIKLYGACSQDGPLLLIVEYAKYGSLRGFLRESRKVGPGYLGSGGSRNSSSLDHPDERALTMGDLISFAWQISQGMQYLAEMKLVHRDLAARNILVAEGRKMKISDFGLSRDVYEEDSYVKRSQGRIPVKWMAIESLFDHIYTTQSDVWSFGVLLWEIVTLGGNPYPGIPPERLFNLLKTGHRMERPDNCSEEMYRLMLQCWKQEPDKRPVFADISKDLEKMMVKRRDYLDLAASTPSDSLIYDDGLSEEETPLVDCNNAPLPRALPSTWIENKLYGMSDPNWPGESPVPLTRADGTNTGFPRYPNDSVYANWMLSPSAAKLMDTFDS

Take `COc1cc(-c2cc(-c3ccc(N4CCNCC4)cc3)cnc2N)cc(OC)c1OC` [Compound 15, 5-(4-(piperazin-1-yl)phenyl)-3-(3,4,5-trimethoxyphenyl)pyridin-2-amine]: the inhibition at 0.1 µM was found to be 1% at FLT-3; 8% on RET; 1% on IKK-ε; 3% on NEK9; 1% at JAK1. The inhibition at 1 µM at FLT-3 was 5%; at RET, 8%; on IKK-ε, 20%; at NEK9 it was 6%; at JAK1, 0%.
With `COc1cc(-c2cc(-c3ccc(N4CCNCC4)cc3)cnc2C)cc(OC)c1OC` [Compound 10, 1-(4-(6-methyl-5-(3,4,5-trimethoxyphenyl)pyridin-3-yl)phenyl)piperazine], the inhibition at 0.1 µM at FLT-3 came to 3%; at RET, 2%; on IKK-ε, 2%; at NEK9 it was 1%; at JAK1 it was 2%. Further, the inhibition at 1 µM turned out to be 18% at FLT-3; 2% on RET; 2% at IKK-ε; 1% at NEK9; 2% on JAK1.
